Source: patent publication US9150577B2, “Heterocyclic compounds containing an indole core” (Boehringer Ingelheim International GmbH, priority 2009, dated 2015)

Target: Human RSK2 (Homo sapiens (Human), UniProt P51812)
Assay: Human RSK2 assay (Kinase Glo Plus, residual ATP);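 further: recombinant human RSK2 phosphorylating a substrate peptide, 90 min at 28 °C, leftover ATP read by luminescence, RLU scaled between no-kinase background and uninhibited kinase controls, 4-parameter fit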
Format: biochemical

Sequence of Human RSK2 (P51812 whole entry): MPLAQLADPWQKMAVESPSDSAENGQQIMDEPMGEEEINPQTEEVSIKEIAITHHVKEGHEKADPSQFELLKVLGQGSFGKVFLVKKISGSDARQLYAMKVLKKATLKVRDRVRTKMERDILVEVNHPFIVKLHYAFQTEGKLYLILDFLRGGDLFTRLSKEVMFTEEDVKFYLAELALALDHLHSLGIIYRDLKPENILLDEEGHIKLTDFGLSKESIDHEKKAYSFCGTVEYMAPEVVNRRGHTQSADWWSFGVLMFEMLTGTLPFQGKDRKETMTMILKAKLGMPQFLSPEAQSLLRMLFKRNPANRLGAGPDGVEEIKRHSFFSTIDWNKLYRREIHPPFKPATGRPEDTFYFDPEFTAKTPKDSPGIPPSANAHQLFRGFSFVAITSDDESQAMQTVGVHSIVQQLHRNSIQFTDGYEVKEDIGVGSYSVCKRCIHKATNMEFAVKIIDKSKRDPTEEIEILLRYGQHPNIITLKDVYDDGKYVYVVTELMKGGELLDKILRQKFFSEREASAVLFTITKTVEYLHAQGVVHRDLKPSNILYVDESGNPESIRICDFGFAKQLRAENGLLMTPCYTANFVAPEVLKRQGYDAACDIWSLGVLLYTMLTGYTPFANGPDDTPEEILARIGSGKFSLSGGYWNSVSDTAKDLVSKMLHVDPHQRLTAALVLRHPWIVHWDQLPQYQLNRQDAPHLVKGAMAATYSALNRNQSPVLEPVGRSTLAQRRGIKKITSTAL

Going from `CCCNC(=O)c1nc(NC(=O)c2ccc3cc4n(c3c2)C(C)CNC4=O)sc1C(C)C` (centres unmarked) [Example 235, 4-methyl-1-oxo-N-[5-(propan-2-yl)-4-(propylcarbamoyl)-1,3-thiazol-2-yl]-1,2,3,4-tetrahydropyrazino[1,2-a]indole-7-carboxamide] to `CC(C)n1c(NC(=O)c2ccc3cc4n(c3c2)[C@@H](C)CNC4=O)nc2ccccc21` [Example 69, (4S)-4-methyl-1-oxo-N-[1-(propan-2-yl)-1H-benzimidazol-2-yl]-1,2,3,4-tetrahydropyrazino[1,2-a]indole-7-carboxamide], the IC50 rises from 10.9 nM to 21 nM (1.9-fold).

First: O=C(Nc1cnn(Cc2ccccc2)c1)c1ccc2cc3n(c2c1)CC1(CCNCC1)CNC3=O [Example 238, N-(1-benzyl-1H-pyrazol-4-yl)-1-oxo-2,3-dihydro-1H-spiro[1,4-diazepino[1,2-a]indole-4,4′-piperidine]-8-carboxamide]
Second: O=C(Nc1cnn(Cc2ccccc2)c1)c1ccc2cc3n(c2c1)CC1(CC1)CNC3=O [Example 125, N-(1-benzyl-1H-pyrazol-4-yl)-1′-oxo-2′,3′-dihydro-1′H-spiro[cyclopropane-1,4′-[1,4]diazepino[1,2-a]indole]-8′-carboxamide]
The IC50 of the first is 32-fold higher: 350 nM for the first, 11 nM for the second. The second is the more potent here.

Compared with `CC1(C)CNC(=O)c2cc3ccc(C(=O)Nc4cccnc4)cc3n2C1` [Example 9, 4,4-dimethyl-1-oxo-N-(pyridin-3-yl)-2,3,4,5-tetrahydro-1H-[1,4]diazepino[1,2-a]indole-8-carboxamide], `CC1(C)CNC(=O)c2cc3ccc(C(=O)Nc4cn[nH]c4)cc3n2C1` [Example 16, 4,4-dimethyl-1-oxo-N-(1H-pyrazol-4-yl)-2,3,4,5-tetrahydro-1H-[1,4]diazepino[1,2-a]indole-8-carboxamide] is 1.8-fold lower in IC50: 4600 nM for the first, 2500 nM for the second.

`CC(C)(CO)c1cc(NC(=O)c2ccc3cc4n(c3c2)CCCNC4=O)on1` [Example 208, N-[3-(1-hydroxy-2-methylpropan-2-yl)-1,2-oxazol-5-yl]-1-oxo-2,3,4,5-tetrahydro-1H-[1,4]diazepino[1,2-a]indole-8-carboxamide] and `CC(C)c1cc(NC(=O)c2ccc3cc4n(c3c2)CCCNC4=O)no1` [Example 213, 1-oxo-N-[5-(propan-2-yl)-1,2-oxazol-3-yl]-2,3,4,5-tetrahydro-1H-[1,4]diazepino[1,2-a]indole-8-carboxamide] are within 1.5-fold of each other in IC50: 96 nM for the first, 66 nM for the second.

First: O=C(Nc1ccc2ccccc2n1)c1ccc2cc3n(c2c1)CCCNC3=O [Example 5, 1-oxo-N-(quinolin-2-yl)-2,3,4,5-tetrahydro-1H-[1,4]diazepino[1,2-a]indole-8-carboxamide]
Second: O=C(Nc1cc(-c2ccccc2)on1)c1ccc2cc3n(c2c1)CCCNC3=O [Example 211, 1-oxo-N-(5-phenyl-1,2-oxazol-3-yl)-2,3,4,5-tetrahydro-1H-[1,4]diazepino[1,2-a]indole-8-carboxamide]
The IC50 of the first is 4.1-fold lower: 70 nM for the first, 290 nM for the second. The first is the more potent here.

Going from `O=C(Nc1nnc(Cc2ccccc2)s1)c1ccc2cc3n(c2c1)CCCNC3=O` [Example 117, N-(5-benzyl-1,3,4-thiadiazol-2-yl)-1-oxo-2,3,4,5-tetrahydro-1H-[1,4]diazepino[1,2-a]indole-8-carboxamide] to `CC(C)(C)n1c(NC(=O)c2ccc3cc4n(c3c2)CCCNC4=O)nc2ccccc21` [Example 65, N-(1-tert-butyl-1H-benzimidazol-2-yl)-1-oxo-2,3,4,5-tetrahydro-1H-[1,4]diazepino[1,2-a]indole-8-carboxamide], the IC50 falls from 98 nM to 19 nM (5.2-fold). The second is the more potent here.

Going from `CCn1c(NC(=O)c2ccc3cc4n(c3c2)C(C)CCNC4=O)nc2ccccc21` (centres unmarked) [Example 166, N-(1-ethyl-1H-benzimidazol-2-yl)-5-methyl-1-oxo-2,3,4,5-tetrahydro-1H-[1,4]diazepino[1,2-a]indole-8-carboxamide] to `C[C@H]1CNC(=O)c2cc3ccc(C(=O)Nc4nc5ccccc5n4CCCN(C)C)cc3n2[C@H]1C` (relative stereo) [Example 92, N-{1-[3-(dimethylamino)propyl]-1H-benzimidazol-2-yl}-cis-4,5-dimethyl-1-oxo-2,3,4,5-tetrahydro-1H-[1,4]diazepino[1,2-a]indole-8-carboxamide], the IC50 rises from 0.6 nM to 2 nM (3.3-fold).

Compared with `CC1CNC(=O)c2cc3ccc(C(=O)Nc4nc5ccccc5[nH]4)cc3n21` (centres unmarked) [Example 57, N-(1H-benzimidazol-2-yl)-4-methyl-1-oxo-1,2,3,4-tetrahydropyrazino[1,2-a]indole-7-carboxamide], `Cc1cc(NC(=O)c2ccc3cc4n(c3c2)[C@H](C)CNC4=O)no1` [Example 128, (4R)-4-methyl-N-(5-methyl-1,2-oxazol-3-yl)-1-oxo-1,2,3,4-tetrahydropyrazino[1,2-a]indole-7-carboxamide] is 11-fold higher in IC50: 0.59 nM for the first, 6.6 nM for the second.

Going from `Cc1cc(NC(=O)c2ccc3cc4n(c3c2)CC2(CC2)CNC4=O)no1` [Example 127, N-(5-methyl-1,2-oxazol-3-yl)-1′-oxo-2′,3′-dihydro-1′H-spiro[cyclopropane-1,4′-[1,4]diazepino[1,2-a]indole]-8′-carboxamide] to `CCc1cc(NC(=O)c2ccc3cc4n(c3c2)CCCNC4=O)no1` [Example 181, N-(5-ethyl-1,2-oxazol-3-yl)-1-oxo-2,3,4,5-tetrahydro-1H-[1,4]diazepino[1,2-a]indole-8-carboxamide], the IC50 falls from 145 nM to 34.5 nM (4.2-fold). The second is the more potent here.

Compared with `Cn1c(NC(=O)c2ccc3cc4n(c3c2)CCCNC4=O)nc2cc(Cl)ccc21` [Example 49, N-(5-chloro-1-methyl-1H-benzimidazol-2-yl)-1-oxo-2,3,4,5-tetrahydro-1H-[1,4]diazepino[1,2-a]indole-8-carboxamide], `Cc1nc2ccc(NC(=O)c3ccc4cc5n(c4c3)CCCNC5=O)cc2s1` [Example 205, N-(2-methyl-1,3-benzothiazol-6-yl)-1-oxo-2,3,4,5-tetrahydro-1H-[1,4]diazepino[1,2-a]indole-8-carboxamide] is 2.6-fold lower in IC50: 26 nM for the first, 10 nM for the second. The second is the more potent here.

Compared with `CC1CNC(=O)c2cc3ccc(C(=O)Nc4cnn(Cc5ccccc5)c4)cc3n2C1` (centres unmarked) [Example 135, N-(1-benzyl-1H-pyrazol-4-yl)-4-methyl-1-oxo-2,3,4,5-tetrahydro-1H-[1,4]diazepino[1,2-a]indole-8-carboxamide], `CC1(C)CNC(=O)c2cc3ccc(C(=O)Nc4cnn(Cc5ccccc5)c4)cc3n21` [Example 134, N-(1-benzyl-1H-pyrazol-4-yl)-4,4-dimethyl-1-oxo-1,2,3,4-tetrahydropyrazino[1,2-a]indole-7-carboxamide] is 4.2-fold lower in IC50: 7.6 nM for the first, 1.8 nM for the second.

First: O=C(Nc1nc2cc(F)ccc2[nH]1)c1ccc2cc3n(c2c1)CCCNC3=O [Example 51, N-(5-fluoro-1H-benzimidazol-2-yl)-1-oxo-2,3,4,5-tetrahydro-1H-[1,4]diazepino[1,2-a]indole-8-carboxamide]
Second: O=C(Nc1nc2cc(C(F)(F)F)ccc2[nH]1)c1ccc2cc3n(c2c1)CCCNC3=O [Example 43, 1-oxo-N-[5-(trifluoromethyl)-1H-benzimidazol-2-yl]-2,3,4,5-tetrahydro-1H-[1,4]diazepino[1,2-a]indole-8-carboxamide]
The IC50 of the first is 4.6-fold lower: 5.2 nM for the first, 24 nM for the second. The first is the more potent here.

Compared with `CN(C)CCNC(=O)c1ccccc1NC(=O)c1ccc2cc3n(c2c1)CCCNC3=O` [Example 230, N-(2-{[2-(dimethylamino)ethyl]carbamoyl}phenyl)-1-oxo-2,3,4,5-tetrahydro-1H-[1,4]diazepino[1,2-a]indole-8-carboxamide], `CC1CCNC(=O)c2cc3ccc(C(=O)Nc4ccccc4C(N)=O)cc3n21` (centres unmarked) [Example 222, N-(2-carbamoylphenyl)-5-methyl-1-oxo-2,3,4,5-tetrahydro-1H-[1,4]diazepino[1,2-a]indole-8-carboxamide] is 11-fold lower in IC50: 125 nM for the first, 11 nM for the second.

`CC(C)(O)Cn1c(NC(=O)c2ccc3cc4n(c3c2)CC(C)(C)CNC4=O)nc2ccccc21` [Example 86, N-[1-(2-hydroxy-2-methylpropyl)-1H-benzimidazol-2-yl]-4,4-dimethyl-1-oxo-2,3,4,5-tetrahydro-1H-[1,4]diazepino[1,2-a]indole-8-carboxamide] and `O=C(Nc1nc2ccccc2n1CC(F)(F)F)c1ccc2cc3n(c2c1)CCCNC3=O` [Example 87, 1-oxo-N-[1-(2,2,2-trifluoroethyl)-1H-benzimidazol-2-yl]-2,3,4,5-tetrahydro-1H-[1,4]diazepino[1,2-a]indole-8-carboxamide] are within 1.5-fold of each other in IC50: 5.9 nM for the first, 4.8 nM for the second.

Going from `O=C(Nc1cnn(CCN2CCOCC2)c1)c1ccc2cc3n(c2c1)CCCNC3=O` [Example 37, N-{1-[2-(morpholin-4-yl)ethyl]-1H-pyrazol-4-yl}-1-oxo-2,3,4,5-tetrahydro-1H-[1,4]diazepino[1,2-a]indole-8-carboxamide] to `CC(C)n1cc(NC(=O)c2ccc3cc4n(c3c2)CCCNC4=O)cn1` [Example 25, 1-oxo-N-[1-(propan-2-yl)-1H-pyrazol-4-yl]-2,3,4,5-tetrahydro-1H-[1,4]diazepino[1,2-a]indole-8-carboxamide], the IC50 falls from 84 nM to 14 nM (6-fold). The second is the more potent here.

Compared with `CN1CCC(Cn2c(NC(=O)c3ccc4cc5n(c4c3)CCCNC5=O)nc3ccccc32)CC1` [Example 88, N-{1-[(1-methylpiperidin-4-yl)methyl]-1H-benzimidazol-2-yl}-1-oxo-2,3,4,5-tetrahydro-1H-[1,4]diazepino[1,2-a]indole-8-carboxamide], `Cn1cc(NC(=O)c2ccc3cc4n(c3c2)CCCNC4=O)ccc1=O` [Example 116, N-(1-methyl-6-oxo-1,6-dihydropyridin-3-yl)-1-oxo-2,3,4,5-tetrahydro-1H-[1,4]diazepino[1,2-a]indole-8-carboxamide] is 5.2-fold higher in IC50: 21 nM for the first, 110 nM for the second.

Going from `O=C(Nc1ncc[nH]1)c1ccc2cc3n(c2c1)CCCNC3=O` [Example 108, N-(1H-imidazol-2-yl)-1-oxo-2,3,4,5-tetrahydro-1H-[1,4]diazepino[1,2-a]indole-8-carboxamide] to `O=C(Nc1cc[nH]n1)c1ccc2cc3n(c2c1)CCCNC3=O` [Example 220, 1-oxo-N-(1H-pyrazol-3-yl)-2,3,4,5-tetrahydro-1H-[1,4]diazepino[1,2-a]indole-8-carboxamide], the IC50 rises from 25.5 nM to 93 nM (3.6-fold). The first is the more potent here.

`CC1(C)CNC(=O)c2cc3ccc(C(=O)Nc4ccccc4C(N)=O)cc3n21` [Example 221, N-(2-carbamoylphenyl)-4,4-dimethyl-1-oxo-1,2,3,4-tetrahydropyrazino[1,2-a]indole-7-carboxamide] was tested, and the IC50 was 8.2 nM.
